Where a name gives a salt, the structure may show the parent alone. Read-outs that look alike come from different tables or passages of the source.
Target: Btk enzyme (His-Btk) (Homo sapiens (Human), UniProt Q06187)
Experiment: Btk enzyme activity, IMAP fluorescence polarization assay (Assay Method A)
[1] = read-out: EC50 Btk activity values - Assay Method A, IMAP-FP, 60 min pre-incubation, 5 μM ATP, class 100-1000 is given as ≧100 nM-<1 μM

Sequence of Btk enzyme (His-Btk) (Q06187 whole entry): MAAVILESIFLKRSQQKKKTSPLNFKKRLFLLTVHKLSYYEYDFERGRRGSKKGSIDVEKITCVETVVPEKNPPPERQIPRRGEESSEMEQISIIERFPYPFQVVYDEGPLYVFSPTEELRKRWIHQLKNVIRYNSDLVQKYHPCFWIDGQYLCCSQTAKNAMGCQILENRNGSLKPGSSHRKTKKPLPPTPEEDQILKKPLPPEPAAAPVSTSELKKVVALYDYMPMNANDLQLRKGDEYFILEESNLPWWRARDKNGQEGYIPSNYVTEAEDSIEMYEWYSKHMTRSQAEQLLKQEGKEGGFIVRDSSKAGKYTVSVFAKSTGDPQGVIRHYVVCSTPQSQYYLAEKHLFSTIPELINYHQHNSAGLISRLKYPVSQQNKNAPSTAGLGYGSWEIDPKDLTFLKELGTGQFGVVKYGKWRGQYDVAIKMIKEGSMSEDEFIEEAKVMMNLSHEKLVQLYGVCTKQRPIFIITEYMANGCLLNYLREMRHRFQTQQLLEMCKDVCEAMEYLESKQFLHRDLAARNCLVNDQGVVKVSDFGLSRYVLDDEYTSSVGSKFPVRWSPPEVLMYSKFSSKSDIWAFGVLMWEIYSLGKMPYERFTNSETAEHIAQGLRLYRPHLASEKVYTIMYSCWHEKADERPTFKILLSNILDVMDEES
Method: Inhibition of kinase activity can be measured using the Immobilized Metal Assay for Phosphochemicals (IMAP) assay. IMAP is a homogeneous fluorescence polarization (FP) assay based on affinity capture of phosphorylated peptide substrates. IMAP uses fluorescein-labeled peptide substrates that, upon phosphorylation by a protein kinase, bind to so-called IMAP nanoparticles, which are derivatized with trivalent metal complexes.
Btk enzyme activity is measured using the IMAP (immobilized metal ion affinity-based fluorescence polarization) assay as outlined below.
Test compounds and Btk enzyme are pre-incubated 60 minutes at room temperature, before adding 5 μL/well of 200 nM Fluorescin labeled substrate peptide (Blk/Lyntide substrate, e.g. #R7188/#R7233, Molecular Devices) in KR-buffer. Final peptide substrate concentration in assay is 50 nM. […] Following incubation for 2 h at room temperature the enzyme reaction is stopped by adding 40 μL/well IMAP Progressive Binding Solution (according to suppliers (Molecular Devices) protocol using 75% 1× buffer A and 25% 1× buffer B with 1:600 Progressive Binding Solution). After 60 min incubation at room temperature in the dark the FP signal is read. […] Values are calculated as percentage of the difference in readout (ΔmPi) of the controls with and without ATP. EC50 values are determined by curve fitting of the experimental results using Activity Base.

| SMILES | EC50 | further results |
| --- | --- | --- |
| Nc1ncnc2c1c(-c1ccc(C(=O)Nc3cc(C(F)(F)F)ccn3)cc1)nn2[C@@H]1CCCN(C(=O)C2CCC2)C1 [Example 277, (R)-4-(4-amino-1-(1-(cyclobutanecarbonyl)piperidin-3-yl)-1H-pyrazolo[3,4-d]pyrimidin-3-yl)-N-(4-(trifluoromethyl)pyridin-2-yl)benzamide] | – | EC50 [1]: < 0.01 µM |
| CC1(C)CC(c2nc(-c3ccc(C(=O)Nc4ccccn4)cc3)c3c(N)nccn23)CCO1 (centres unmarked) [Example 35, 4-(8-amino-3-(2,2-dimethyltetrahydro-2H-pyran-4-yl)imidazo[1,5-a]pyrazin-1-yl)-N-(pyridin-2-yl)benzamide] | 0.01 to 0.1 µM | – |
| Nc1nccn2c(N3CCCC(C(=O)N4CCOCC4)C3)nc(-c3ccc(C(=O)Nc4cc(C(F)(F)F)ccn4)cc3)c12 (centres unmarked) [Example 234, 4-(8-amino-3-(3-(morpholine-4-carbonyl)piperidin-1-yl)imidazo[1,5-a]pyrazin-1-yl)-N-(4-(trifluoromethyl)pyridin-2-yl)benzamide, TFA salt] | – | EC50 [1]: < 0.01 µM |
| CCc1cnc(NC(=O)c2ccc(-c3nc(C4CCOCC4)n4ccnc(N)c34)cc2)s1 [Example 28, 4-(8-amino-3-(tetrahydro-2H-pyran-4-yl)imidazo[1,5-a]pyrazin-1-yl)-N-(5-ethylthiazol-2-yl)benzamide] | 0.01 to 0.1 µM | – |
| Nc1nccn2c1c(-c1ccc(C(=O)Nc3nc4c(s3)CNCC4)cc1)nc2[C@H]1CC[C@H](O)CC1 [Example 17, 4-(8-amino-3-((trans)-4-hydroxycyclohexyl)imidazo[1,5-a]pyrazin-1-yl)-N-(4,5,6,7-tetrahydrothiazolo[5,4-c]pyridin-2-yl)benzamide] | – | EC50 (read-out: EC50 Btk activity values - Assay Method A, IMAP-FP, 60 min pre-incubation, 5 μM ATP): ≥ 1 µM |
| Nc1nccn2c([C@@H]3CCCN(C(=O)C4(O)CCC4)C3)nc(-c3ccc(C(=O)Nc4cc(C(F)(F)F)ccn4)cc3)c12 [Example 81, (R)-4-(8-amino-3-(1-(1-hydroxycyclobutanecarbonyl)piperidin-3-yl)imidazo[1,5-a]pyrazin-1-yl)-N-(4-(trifluoromethyl)pyridin-2-yl)benzamide] | < 0.01 µM | – |
| Cc1noc([C@H]2C[C@@H]2C(=O)N2CCC[C@@H](c3nc(-c4ccc(C(=O)Nc5cc(C(F)(F)F)ccn5)cc4)c4c(N)nccn34)C2)n1 [Example 82, 4-(8-amino-3-((R)-1-((1S,2S)-2-(3-methyl-1,2,4-oxadiazol-5-yl)cyclopropanecarbonyl)piperidin-3-yl)imidazo[1,5-a]pyrazin-1-yl)-N-(4-(trifluoromethyl)pyridin-2-yl)benzamide] | < 0.01 µM | – |
| CCNC(=O)N1CCCC(c2cc(-c3ccc(C(=O)Nc4cc(C(F)(F)F)ccn4)cc3)c3c(N)ncnn23)C1 (centres unmarked) [Example 252, 3-(4-amino-5-(4-(4-(trifluoromethyl)pyridin-2-ylcarbamoyl)phenyl)pyrrolo[1,2-f][1,2,4]triazin-7-yl)-N-ethylpiperidine-1-carboxamide] | – | EC50 [1]: < 0.01 µM |
| Nc1nccn2c([C@@H]3CCCN(C(=O)C(=O)C(F)(F)F)C3)nc(-c3ccc(C(=O)Nc4cc(C5CC5)ccn4)cc3)c12 [Example 115, (R)-4-(8-amino-3-(1-(3,3,3-trifluoro-2-oxopropanoyl)piperidin-3-yl)imidazo[1,5-a]pyrazin-1-yl)-N-(4-cyclopropylpyridin-2-yl)benzamide] | 0.1 to 1 µM | – |

Continued, in another order:

| EC50 | SMILES | further results |
| --- | --- | --- |
| 0.01 to 0.1 µM | Nc1nccn2c(N3CCCC(C(=O)NCC4CC4)C3)nc(-c3ccc(C(=O)Nc4ccccn4)cc3)c12 (centres unmarked) [Example 225, 1-(8-amino-1-(4-(pyridin-2-ylcarbamoyl)phenyl)imidazo[1,5-a]pyrazin-3-yl)-N-(cyclopropylmethyl)-piperidine-3-carboxamide, TFA sat] | – |
| 0.01 to 0.1 µM | CC(C)(C#N)C(=O)N1CCC[C@@H](n2nc(-c3ccc(C(=O)Nc4cc(C(F)(F)F)ccn4)cc3)c3c(N)ncnc32)C1 [Example 263, (R)-4-(4-amino-1-(1-(2-cyano-2-methylpropanoyl)piperidin-3-yl)-1H-pyrazolo[3,4-d]pyrimidin-3-yl)-N-(4-(trifluoromethyl)pyridin-2-yl)benzamide] | – |
